PubChem BioAssay (NCI)
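Results reflect a 48-hour exposure of cells in 96-well plates to compound at five concentrations. GI50 = concentration required for 50% inhibition of growth. TGI: total growth inhibition.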

Legend:
Assay in all cases: DTP human tumour cell line panel, 48 h
UACC-257 melanoma = test system: UACC-257 melanoma
HOP-92 NSCLC = test system: HOP-92 NSCLC
NCI-H460 lung = test system: NCI-H460 lung
SW-620 colon = test system: SW-620 colon
SF-268 CNS = test system: SF-268 CNS
OVCAR-3 ovarian = test system: OVCAR-3 ovarian
UO-31 renal = test system: UO-31 renal
HS 578T breast = test system: HS 578T breast
HT29 colon = test system: HT29 colon
BT-549 breast = test system: BT-549 breast
SR leukemia = test system: SR leukemia
SNB-19 CNS = test system: SNB-19 CNS
KM12 colon = test system: KM12 colon
T-47D breast = test system: T-47D breast
HCT-15 colon = test system: HCT-15 colon
MDA-MB-435 = test system: MDA-MB-435
MALME-3M melanoma = test system: MALME-3M melanoma
M14 melanoma = test system: M14 melanoma
MCF7 breast = test system: MCF7 breast
OVCAR-5 ovarian = test system: OVCAR-5 ovarian
NCI/ADR-RES ovarian = test system: NCI/ADR-RES ovarian
A549 NSCLC = test system: A549 NSCLC
CCRF-CEM leukemia = test system: CCRF-CEM leukemia
UACC-62 melanoma = test system: UACC-62 melanoma
TK-10 renal = test system: TK-10 renal
ACHN renal = test system: ACHN renal
RXF 393 renal = test system: RXF 393 renal
786-0 renal = test system: 786-0 renal
MDA-MB-231 breast = test system: MDA-MB-231 breast
K-562 leukemia = test system: K-562 leukemia
SK-MEL-28 melanoma = test system: SK-MEL-28 melanoma
PC-3 prostate = test system: PC-3 prostate
NCI-H522 lung = test system: NCI-H522 lung
CAKI-1 renal = test system: CAKI-1 renal
MOLT-4 leukemia = test system: MOLT-4 leukemia
HOP-62 NSCLC = test system: HOP-62 NSCLC
SF-539 CNS = test system: SF-539 CNS
U251 CNS = test system: U251 CNS
NCI-H23 lung = test system: NCI-H23 lung
COLO 205 colon = test system: COLO 205 colon
SK-MEL-2 melanoma = test system: SK-MEL-2 melanoma
SN12C renal = test system: SN12C renal
RPMI-8226 leukemia = test system: RPMI-8226 leukemia
HCC-2998 colon = test system: HCC-2998 colon
HCT-116 colon = test system: HCT-116 colon
EKVX NSCLC = test system: EKVX NSCLC
DU-145 prostate = test system: DU-145 prostate
SK-OV-3 ovarian = test system: SK-OV-3 ovarian
A498 renal = test system: A498 renal
SK-MEL-5 melanoma = test system: SK-MEL-5 melanoma
OVCAR-8 ovarian = test system: OVCAR-8 ovarian
SNB-75 CNS = test system: SNB-75 CNS

With `O=C(/C=C/c1cccs1)c1ccc(Cl)cc1Cl` the GI50 (UACC-257 melanoma) was 16.6 µM, the TGI (UACC-257 melanoma) was 31.9 µM and the GI50 (HOP-92 NSCLC) was 23.8 µM. It also gave a TGI (HOP-92 NSCLC) of 61.4 µM, a GI50 (NCI-H460 lung) of 18 µM and a TGI (NCI-H460 lung) of 37.1 µM. For the same compound, the GI50 (SW-620 colon) was 18.8 µM, the TGI (SW-620 colon) was 37.1 µM and the GI50 (SF-268 CNS) was 19.1 µM. It also gave a TGI (SF-268 CNS) of 39 µM, a GI50 (OVCAR-3 ovarian) of 19 µM and a TGI (OVCAR-3 ovarian) of 36.4 µM. It also gave a GI50 (UO-31 renal) of 18.5 µM, a TGI (UO-31 renal) of 34.2 µM and a GI50 (HS 578T breast) of 24.5 µM. It also gave a TGI (HS 578T breast) of 55.9 µM, a GI50 (HT29 colon) of 28.1 µM and a TGI (HT29 colon) greater than 100 µM. The GI50 (BT-549 breast) was 19.3 µM, the TGI (BT-549 breast) was 39.9 µM and the GI50 (SR leukemia) was 15 µM. The TGI (SR leukemia) was 77.3 µM, the GI50 (SNB-19 CNS) was 24 µM and the TGI (SNB-19 CNS) was 64.2 µM. It also gave a GI50 (KM12 colon) of 19.1 µM, a TGI (KM12 colon) of 40 µM and a GI50 (T-47D breast) of 28.6 µM. The TGI (T-47D breast) was greater than 100 µM, the GI50 (HCT-15 colon) was 14.7 µM and the TGI (HCT-15 colon) was 32.4 µM. The GI50 (MDA-MB-435) was 17.7 µM, the TGI (MDA-MB-435) was 35.2 µM and the GI50 (MALME-3M melanoma) was 1.04 µM. For the same compound, the TGI (MALME-3M melanoma) was 19.8 µM, the GI50 (M14 melanoma) was 19.8 µM and the TGI (M14 melanoma) was 40.5 µM. The GI50 (MCF7 breast) was 18.4 µM, the TGI (MCF7 breast) was 51.6 µM and the GI50 (OVCAR-5 ovarian) was 20.1 µM. The TGI (OVCAR-5 ovarian) was 39 µM, the GI50 (NCI/ADR-RES ovarian) was 31.4 µM and the TGI (NCI/ADR-RES ovarian) was greater than 100 µM. The GI50 (A549 NSCLC) was 17.3 µM, the TGI (A549 NSCLC) was 36.4 µM and the GI50 (CCRF-CEM leukemia) was 32.1 µM. It also gave a TGI (CCRF-CEM leukemia) of 97.1 µM, a GI50 (UACC-62 melanoma) of 13.4 µM and a TGI (UACC-62 melanoma) of 26.4 µM. It also gave a GI50 (TK-10 renal) of 25.3 µM, a TGI (TK-10 renal) of 61.1 µM and a GI50 (ACHN renal) of 17.4 µM. For the same compound, the TGI (ACHN renal) was 31.3 µM, the GI50 (RXF 393 renal) was 19.4 µM and the TGI (RXF 393 renal) was 38.4 µM. The GI50 (786-0 renal) was 16.6 µM, the TGI (786-0 renal) was 33.9 µM and the GI50 (MDA-MB-231 breast) was 14.3 µM. The TGI (MDA-MB-231 breast) was 28.1 µM, the GI50 (K-562 leukemia) was 19.1 µM and the TGI (K-562 leukemia) was 56.4 µM. It also gave a GI50 (SK-MEL-28 melanoma) of 22.4 µM, a TGI (SK-MEL-28 melanoma) of 52.7 µM and a GI50 (PC-3 prostate) of 33.2 µM. The TGI (PC-3 prostate) was greater than 100 µM, the GI50 (NCI-H522 lung) was 17.4 µM and the TGI (NCI-H522 lung) was 36.5 µM. For the same compound, the GI50 (CAKI-1 renal) was 20.9 µM, the TGI (CAKI-1 renal) was 43.1 µM and the GI50 (MOLT-4 leukemia) was 18.8 µM. It also gave a TGI (MOLT-4 leukemia) of 51.9 µM, a GI50 (HOP-62 NSCLC) of 19.4 µM and a TGI (HOP-62 NSCLC) of 37.7 µM. For the same compound, the GI50 (SF-539 CNS) was 19.8 µM, the TGI (SF-539 CNS) was 38.6 µM and the GI50 (U251 CNS) was 14.6 µM. For the same compound, the TGI (U251 CNS) was 28.1 µM, the GI50 (NCI-H23 lung) was 17.1 µM and the TGI (NCI-H23 lung) was 33.6 µM. It also gave a GI50 (COLO 205 colon) of 27.1 µM, a TGI (COLO 205 colon) of 88.9 µM and a GI50 (SK-MEL-2 melanoma) of 17.5 µM. For the same compound, the TGI (SK-MEL-2 melanoma) was 35 µM, the GI50 (SN12C renal) was 16.4 µM and the TGI (SN12C renal) was 31.2 µM. It also gave a GI50 (RPMI-8226 leukemia) of 27.7 µM, a TGI (RPMI-8226 leukemia) greater than 100 µM and a GI50 (HCC-2998 colon) of 19.2 µM. The TGI (HCC-2998 colon) was 34.8 µM, the GI50 (HCT-116 colon) was 14 µM and the TGI (HCT-116 colon) was 30.8 µM. It also gave a GI50 (EKVX NSCLC) of 18.6 µM, a TGI (EKVX NSCLC) of 36.7 µM and a GI50 (DU-145 prostate) of 20 µM. For the same compound, the TGI (DU-145 prostate) was 43.7 µM, the GI50 (SK-OV-3 ovarian) was 25.5 µM and the TGI (SK-OV-3 ovarian) was 55.3 µM. For the same compound, the GI50 (A498 renal) was 17.9 µM, the TGI (A498 renal) was 32.7 µM and the GI50 (SK-MEL-5 melanoma) was 15 µM. It also gave a TGI (SK-MEL-5 melanoma) of 28.8 µM, a GI50 (OVCAR-8 ovarian) of 19.4 µM and a TGI (OVCAR-8 ovarian) of 48.3 µM. The GI50 (SNB-75 CNS) was 18.1 µM and the TGI (SNB-75 CNS) was 35.9 µM.
